PubChem BioAssay (NCI)
“And” between values parts separate entries of the source, which are not always exact repeats. Equal entries are not always repeated.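 All cell lines were grown in 96-well plates and treated with compound for 48 hours. GI50 is the concentration that inhibits growth by half. TGI: concentration producing complete growth inhibition.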

Experiments:
Assay in all cases: growth of human tumour cells (NCI), 48 h
SR leukemia = system: SR leukemia
MOLT-4 leukemia = system: MOLT-4 leukemia
HCC-2998 colon = system: HCC-2998 colon
SK-MEL-2 melanoma = system: SK-MEL-2 melanoma
HCT-116 colon = system: HCT-116 colon
EKVX NSCLC = system: EKVX NSCLC
DU-145 prostate = system: DU-145 prostate
SK-MEL-5 melanoma = system: SK-MEL-5 melanoma
OVCAR-4 ovarian = system: OVCAR-4 ovarian
NCI-H226 lung = system: NCI-H226 lung

CS(=O)(=O)CCNCc1cc(-c2cc3c(Nc4ccc(OCc5cccc(F)c5)c(Cl)c4)ncnc3s2)cs1
GI50 (SR leukemia): 7.39 µM
TGI (SR leukemia): > 25 µM
GI50 (MOLT-4 leukemia): 8.9 µM
TGI (MOLT-4 leukemia): > 25 µM
GI50 (HCC-2998 colon): 6.59 µM
TGI (HCC-2998 colon): 21.5 µM
GI50 (SK-MEL-2 melanoma): 12.8 µM
TGI (SK-MEL-2 melanoma): > 25 µM
GI50 (HCT-116 colon): 12 µM
TGI (HCT-116 colon): > 25 µM
GI50 (EKVX NSCLC): 3.42 µM
TGI (EKVX NSCLC): > 25 µM
GI50 (DU-145 prostate): 13.3 µM
TGI (DU-145 prostate): > 25 µM
GI50 (SK-MEL-5 melanoma): 7.09 µM
TGI (SK-MEL-5 melanoma): > 25 µM
GI50 (OVCAR-4 ovarian): 14.4 µM
TGI (OVCAR-4 ovarian): > 25 µM
GI50 (NCI-H226 lung): 15.1 µM
TGI (NCI-H226 lung): > 25 µM

CC(C)c1cnn2c(NCc3ccccc3)cc(NC[C@H]3CCNC[C@@H]3O)nc12
GI50 (SR leukemia): 0.0481 µM and 0.0623 µM
GI50 (MOLT-4 leukemia): 0.361 µM and 0.504 µM
TGI (MOLT-4 leukemia): 10.2 µM and 14 µM
GI50 (HCC-2998 colon): 0.534 µM and 0.645 µM
TGI (HCC-2998 colon): 5.55 µM and 3.51 µM
GI50 (SK-MEL-2 melanoma): 0.334 µM and 0.668 µM
TGI (SK-MEL-2 melanoma): 1.63 µM and 2.15 µM
GI50 (HCT-116 colon): 0.168 µM and 0.158 µM
TGI (HCT-116 colon): 10.9 µM and 10.8 µM
GI50 (EKVX NSCLC): 0.861 µM and 0.645 µM
TGI (EKVX NSCLC): 8.2 µM and 6.07 µM
GI50 (DU-145 prostate): 0.4 µM and 0.309 µM
TGI (DU-145 prostate): 11.4 µM and 9.62 µM
GI50 (SK-MEL-5 melanoma): 0.742 µM and 1.19 µM
TGI (SK-MEL-5 melanoma): 2.35 µM and 3.59 µM
GI50 (OVCAR-4 ovarian): 0.304 µM and 0.597 µM
TGI (OVCAR-4 ovarian): 2.8 µM and 3.62 µM
GI50 (NCI-H226 lung): 0.766 µM and 0.725 µM
TGI (NCI-H226 lung): 4.01 µM and 5.53 µM

O=C1/C(=C/c2cccc(Br)c2)COc2ccc(O)cc21
GI50 (SR leukemia): 0.47 µM
TGI (SR leukemia): 5.2 µM
GI50 (MOLT-4 leukemia): 2.46 µM
TGI (MOLT-4 leukemia): 10.9 µM
GI50 (HCC-2998 colon): 1.8 µM
TGI (HCC-2998 colon): 3.46 µM
GI50 (SK-MEL-2 melanoma): 3.79 µM
TGI (SK-MEL-2 melanoma): 14.2 µM
GI50 (HCT-116 colon): 1.45 µM
TGI (HCT-116 colon): 2.99 µM
GI50 (EKVX NSCLC): 4.78 µM
TGI (EKVX NSCLC): 17.4 µM
GI50 (DU-145 prostate): 4.48 µM
TGI (DU-145 prostate): 16.5 µM
GI50 (SK-MEL-5 melanoma): 1.91 µM
TGI (SK-MEL-5 melanoma): 4.35 µM
GI50 (OVCAR-4 ovarian): 3.55 µM
TGI (OVCAR-4 ovarian): 14.1 µM
GI50 (NCI-H226 lung): 4.92 µM
TGI (NCI-H226 lung): 26 µM

CCNc1cc(-c2cccc(OC(F)(F)F)c2)nc2ccc(N3CCCC3)cc12
GI50 (SR leukemia): 1.57 µM
TGI (SR leukemia): 5 µM
GI50 (MOLT-4 leukemia): 2.08 µM
TGI (MOLT-4 leukemia): 7.08 µM
GI50 (HCC-2998 colon): 2.27 µM
TGI (HCC-2998 colon): 6.06 µM
GI50 (SK-MEL-2 melanoma): 1.81 µM
TGI (SK-MEL-2 melanoma): 3.54 µM
GI50 (HCT-116 colon): 1.52 µM
TGI (HCT-116 colon): 3.43 µM
GI50 (EKVX NSCLC): 2.49 µM
TGI (EKVX NSCLC): 11.1 µM
GI50 (DU-145 prostate): 2.2 µM
TGI (DU-145 prostate): 5.88 µM
GI50 (SK-MEL-5 melanoma): 1.51 µM
TGI (SK-MEL-5 melanoma): 2.84 µM
GI50 (OVCAR-4 ovarian): 2.35 µM
TGI (OVCAR-4 ovarian): 10.7 µM
GI50 (NCI-H226 lung): 1.67 µM
TGI (NCI-H226 lung): 4.53 µM

CC(C)CCC[C@@H](C)[C@H]1CC[C@H]2[C@@H]3CC[C@H]4C[C@@H](CCC=C(c5cc(Cl)c(O)c(C(=O)O)c5)c5cc(Cl)c(O)c(C(=O)O)c5)CC[C@]4(C)[C@H]3CC[C@]12C
TGI (SR leukemia): > 100 µM
TGI (MOLT-4 leukemia): > 100 µM
TGI (HCC-2998 colon): > 100 µM
TGI (SK-MEL-2 melanoma): > 100 µM
TGI (HCT-116 colon): > 100 µM
TGI (EKVX NSCLC): > 100 µM
TGI (DU-145 prostate): > 100 µM
TGI (SK-MEL-5 melanoma): > 100 µM
TGI (OVCAR-4 ovarian): > 100 µM
TGI (NCI-H226 lung): > 100 µM

Cc1nc(-c2ccccc2)n2nc(NCCCN3CCOCC3)ncc12
GI50 (SR leukemia): > 25 µM
TGI (SR leukemia): > 25 µM
GI50 (MOLT-4 leukemia): > 25 µM
TGI (MOLT-4 leukemia): > 25 µM
GI50 (HCC-2998 colon): > 25 µM
TGI (HCC-2998 colon): > 25 µM
GI50 (SK-MEL-2 melanoma): 10.5 µM
TGI (SK-MEL-2 melanoma): > 25 µM
GI50 (HCT-116 colon): 19.4 µM
TGI (HCT-116 colon): > 25 µM
GI50 (EKVX NSCLC): > 25 µM
TGI (EKVX NSCLC): > 25 µM
GI50 (DU-145 prostate): 22.7 µM
TGI (DU-145 prostate): > 25 µM
GI50 (SK-MEL-5 melanoma): > 16.7 µM
TGI (SK-MEL-5 melanoma): > 25 µM
GI50 (OVCAR-4 ovarian): 15.1 µM
TGI (OVCAR-4 ovarian): > 25 µM
GI50 (NCI-H226 lung): > 8.17 µM
TGI (NCI-H226 lung): > 25 µM

O=C(Nc1cc(C(F)(F)F)ccc1Cl)c1ccc(NC2=C(Cl)C(=O)N(Cc3ccccc3)C2=O)cc1
GI50 (SR leukemia): 1.3 µM
TGI (SR leukemia): 4.4 µM
GI50 (MOLT-4 leukemia): 3.53 µM
TGI (MOLT-4 leukemia): 77.7 µM
GI50 (HCC-2998 colon): 5.28 µM
TGI (HCC-2998 colon): 9.11 µM
GI50 (SK-MEL-2 melanoma): 18.6 µM
TGI (SK-MEL-2 melanoma): 40.6 µM
GI50 (HCT-116 colon): 17.2 µM
TGI (HCT-116 colon): > 100 µM
GI50 (EKVX NSCLC): 46.6 µM
TGI (EKVX NSCLC): > 100 µM
GI50 (DU-145 prostate): 26.9 µM
TGI (DU-145 prostate): 80.9 µM
GI50 (SK-MEL-5 melanoma): 18.6 µM
TGI (SK-MEL-5 melanoma): 60.4 µM
GI50 (OVCAR-4 ovarian): 47.4 µM
TGI (OVCAR-4 ovarian): > 100 µM
GI50 (NCI-H226 lung): 13.9 µM
TGI (NCI-H226 lung): 65.5 µM

NCCSSCCN
TGI (SR leukemia): > 100 µM
TGI (MOLT-4 leukemia): > 100 µM
TGI (HCC-2998 colon): > 100 µM
TGI (SK-MEL-2 melanoma): > 100 µM
TGI (HCT-116 colon): > 100 µM
TGI (EKVX NSCLC): > 100 µM
TGI (DU-145 prostate): > 100 µM
TGI (SK-MEL-5 melanoma): > 100 µM
TGI (OVCAR-4 ovarian): > 100 µM
TGI (NCI-H226 lung): > 100 µM

COc1ccccc1C#Cc1ccccc1C#CCCCCO
GI50 (SR leukemia): 1.01 µM
TGI (SR leukemia): 64.4 µM
GI50 (MOLT-4 leukemia): 19.6 µM
TGI (MOLT-4 leukemia): 96 µM
GI50 (HCC-2998 colon): 17.9 µM
TGI (HCC-2998 colon): 35.4 µM
GI50 (SK-MEL-2 melanoma): 20.1 µM
TGI (SK-MEL-2 melanoma): 41.6 µM
GI50 (HCT-116 colon): 16 µM
TGI (HCT-116 colon): 36.3 µM
GI50 (EKVX NSCLC): 15.9 µM
TGI (EKVX NSCLC): 34.4 µM
GI50 (DU-145 prostate): 14.3 µM
TGI (DU-145 prostate): 29.5 µM
GI50 (SK-MEL-5 melanoma): 14.1 µM
TGI (SK-MEL-5 melanoma): 29.5 µM
GI50 (OVCAR-4 ovarian): 23.2 µM
TGI (OVCAR-4 ovarian): 63.1 µM
GI50 (NCI-H226 lung): 21.4 µM
TGI (NCI-H226 lung): 49.2 µM

Nc1ccccc1C#C/C=C\C#Cc1ccc(OCCCNC(=O)c2cc3ccccc3[nH]2)cc1
GI50 (SR leukemia): 23.3 µM
TGI (SR leukemia): 99 µM
GI50 (MOLT-4 leukemia): 49.4 µM
TGI (MOLT-4 leukemia): > 100 µM
GI50 (HCC-2998 colon): 31.5 µM
TGI (HCC-2998 colon): > 100 µM
GI50 (SK-MEL-2 melanoma): > 100 µM
TGI (SK-MEL-2 melanoma): > 100 µM
GI50 (HCT-116 colon): 12.4 µM
TGI (HCT-116 colon): 40.6 µM
GI50 (EKVX NSCLC): 16.4 µM
TGI (EKVX NSCLC): 92.7 µM
GI50 (DU-145 prostate): 35.4 µM
TGI (DU-145 prostate): > 100 µM
GI50 (SK-MEL-5 melanoma): 2.09 µM
TGI (SK-MEL-5 melanoma): 25.7 µM
GI50 (OVCAR-4 ovarian): 21.4 µM
TGI (OVCAR-4 ovarian): > 100 µM
GI50 (NCI-H226 lung): 14.4 µM
TGI (NCI-H226 lung): 87.7 µM

COc1ccc(-c2cs/c(=N\N=C\c3ccc(O)cc3O)n2/N=C/c2ccc(O)cc2O)cc1
GI50 (SR leukemia): 2.53 µM
TGI (SR leukemia): > 100 µM
GI50 (MOLT-4 leukemia): 1.79 µM
TGI (MOLT-4 leukemia): 5.05 µM
GI50 (HCC-2998 colon): 2.07 µM
TGI (HCC-2998 colon): 4.38 µM
GI50 (SK-MEL-2 melanoma): 2.14 µM
TGI (SK-MEL-2 melanoma): 4.87 µM
GI50 (HCT-116 colon): 1.57 µM
TGI (HCT-116 colon): 3.04 µM
GI50 (EKVX NSCLC): 2.32 µM
TGI (EKVX NSCLC): 6.73 µM
GI50 (DU-145 prostate): 2.21 µM
TGI (DU-145 prostate): 5.84 µM
GI50 (SK-MEL-5 melanoma): 1.69 µM
TGI (SK-MEL-5 melanoma): 3.07 µM
GI50 (OVCAR-4 ovarian): 2.17 µM
TGI (OVCAR-4 ovarian): 7.12 µM
GI50 (NCI-H226 lung): 2.08 µM
TGI (NCI-H226 lung): 4.78 µM
